The subject of data set [1] is human hepatocytes. As to the kind of experiment: Metabolite identification after incubation of 5-MeO-DMT with human hepatocytes. The note with it: 5-MeO-DMT free base 10 μM, up to 120 minutes. On the procedure:
For incubations with cryopreserved hepatocytes, the 2 mM stock solution was diluted with Leibovitz L-15 medium to a concentration of 20 μM or 2 μM. An aliquot (250 μL) of the 20 μM and 2 μM test substance formulations was added to each hepatocyte incubation sample (250 μL), as appropriate, so that the final test substance concentration in the incubations was 10 μM or 1 μM, respectively, and incubations contained less than 1% (v/v) solvent.
Incubations were performed at ca. 37° C. in a shaking water bath (total incubation volume 0.5 mL). For 1 μM, incubations were terminated after 0, 5, 10, 20, 30, 60 and 120 minutes, by the addition of ice-cold acetonitrile (0.5 mL).
The samples were vortex mixed and centrifuged at ca 13,000 rpm for 10 minutes at room temperature. Following centrifugation, the protein-free supernatants were removed for analysis.
Blank control incubations were carried out with Leibovitz L-15 medium in place of the test substance. No cells control samples were performed with Leibovitz L-15 medium in place of hepatocytes. Aliquots of the blank control samples were taken at 120 minutes, while no cells control samples were taken at 0, 30 and 120 for 1 μM incubations and at 0 and 120 minutes for 10 μM incubations.
All 1 μM incubations were performed in duplicate, while all 10 μM incubations were performed in singlet. All samples were stored at −80° C. (nominal) prior to analysis.
Prior to sample analysis a 100 μL aliquot of each sample was evaporated to near dryness under a steady stream of nitrogen at room temperature, and subsequently reconstituted in 50 μL of mobile phase A (0.1% formic acid in water). Each sample (0, 30 and 120-minute, 10 μM) was analysed using accurate mass LC-MS to determine relative levels of parent compound at each time-point, and determine the profile of metabolites formed. Appropriate blank and control samples were also analysed. The 10 and 60-minute, 10 μM incubation samples were not analysed and were stored at −80° C. (nominal).
Data were interrogated for the presence of metabolites by comparison of retention times with the test substance reference standard and based on the accurate masses of potential metabolites using screening software (UNIFI version 1.9.4), and user defined search parameters. To confirm a suspected metabolite, the measured accurate mass of the peak detected in the sample used for structural elucidation had to be within 5 ppm of the theoretical mass in order to confirm the molecular formula.

The subject of data set [2] is human hepatocytes. As to the kind of experiment: Metabolic stability in Hμrel human hepatocyte co-culture model.

These results are taken from patent US20240108602A1, “TREATMENT OF MENTAL DISORDERS” (GH Research Ireland Limited, priority 2022, published 2024).

As a reminder, the half-life is the time in which the quantity being followed falls by half. Lower therefore signals rapid decline.

As for `COc1ccc2[nH]cc(CC[N+](C)(C)[O-])c2c1` [5-MeO-DMT-N-oxide], in the data set with human hepatocytes [1], the “Relative Proportion of compound after incubation of 5-MeO-DMT” value is reported as 1%.

As to `COc1ccc2[nH]cc(CCO)c2c1` [5-methoxytryptophol, 5-Methoxyindole-3-ethanol], the “Relative Proportion of compound after incubation of 5-MeO-DMT” value in the data set with human hepatocytes [1] is recorded as 25%. The “relative LC/MS peak area” value with human hepatocytes [2] (1 μM Stromal cells, 0 h) is 100%; in the data set on human hepatocytes [2] (1 μM Stromal cells, 4 h), 97%; in the data set on human hepatocytes [2] (1 μM Stromal cells, 8 h), 107%; in the data set on human hepatocytes [2] (1 μM Stromal cells, 24 h), 94%; in the data set with human hepatocytes [2] (1 μM Stromal cells, 48 h), 102%; with human hepatocytes [2] (1 μM Stromal cells, 72 h), 104%. Moreover, the “relative LC/MS peak area” value was 100% in the data set on human hepatocytes [2] (10 μM Stromal cells, 0 h); 99% with human hepatocytes [2] (10 μM Stromal cells, 4 h); 105% with human hepatocytes [2] (10 μM Stromal cells, 8 h); 86% in the data set on human hepatocytes [2] (10 μM Stromal cells, 24 h); 98% in the data set on human hepatocytes [2] (10 μM Stromal cells, 48 h); 104% in the data set on human hepatocytes [2] (10 μM Stromal cells, 72 h). Also, the metabolic turnover entry in the data set with human hepatocytes [2] (human hepatocytes) is recorded as “high metabolic turnover”. Besides, the half-life in the data set on human hepatocytes [2] (human hepatocytes, 1 μM) was 2.37 h. The “in vitro intrinsic clearance” value with human hepatocytes [2] (human hepatocytes, 1 μM) is given as 16.2 μl/min/million cells. Moreover, the “disappearance with stromal cell controls” value in the data set with human hepatocytes [2] (stromal cell controls) is listed as “no disappearance”.
